Laboratory results reported in PubChem BioAssay (NCI).
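How tested: cells in 96-well plates exposed to compound for 48 hours at five concentrations. TGI: total growth inhibition.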

Experiments:
Test in all cases: NCI-60 cell line screen, 48 h
[1] = system: 786-0 renal
[2] = system: A498 renal
[3] = system: A549 NSCLC
[4] = system: ACHN renal
[5] = system: CAKI-1 renal
[6] = system: CCRF-CEM leukemia
[7] = system: COLO 205 colon
[8] = system: DU-145 prostate
[9] = system: EKVX NSCLC
[10] = system: HCC-2998 colon
[11] = system: HCT-116 colon
[12] = system: HCT-15 colon
[13] = system: HL-60(TB) leukemia
[14] = system: HOP-62 NSCLC
[15] = system: HOP-92 NSCLC
[16] = system: HS 578T breast
[17] = system: HT29 colon
[18] = system: IGROV1 ovarian
[19] = system: K-562 leukemia
[20] = system: KM12 colon
[21] = system: LOX IMVI melanoma
[22] = system: M14 melanoma
[23] = system: MALME-3M melanoma
[24] = system: MCF7 breast
[25] = system: MDA-MB-231 breast
[26] = system: MDA-MB-435
[27] = system: MDA-N
[28] = system: MOLT-4 leukemia
[29] = system: NCI-H226 lung
[30] = system: NCI-H23 lung
[31] = system: NCI-H460 lung
[32] = system: NCI-H522 lung
[33] = system: NCI/ADR-RES ovarian
[34] = system: OVCAR-3 ovarian
[35] = system: OVCAR-4 ovarian
[36] = system: OVCAR-5 ovarian
[37] = system: OVCAR-8 ovarian
[38] = system: PC-3 prostate
[39] = system: RPMI-8226 leukemia
[40] = system: RXF 393 renal
[41] = system: SF-268 CNS
[42] = system: SF-295 CNS
[43] = system: SF-539 CNS
[44] = system: SK-MEL-2 melanoma
[45] = system: SK-MEL-28 melanoma
[46] = system: SK-MEL-5 melanoma
[47] = system: SK-OV-3 ovarian
[48] = system: SN12C renal
[49] = system: SNB-19 CNS
[50] = system: SNB-75 CNS
[51] = system: SR leukemia
[52] = system: SW-620 colon
[53] = system: T-47D breast
[54] = system: TK-10 renal
[55] = system: U251 CNS
[56] = system: UACC-257 melanoma
[57] = system: UACC-62 melanoma
[58] = system: UO-31 renal
[59] = system: BT-549 breast

CC(=O)OC1CC2CC(=O)CC1N2C (centres undefined)
TGI [1]: > 100 µM | TGI [2]: > 100 µM | TGI [3]: > 100 µM | TGI [4]: > 100 µM | TGI [5]: > 100 µM | TGI [6]: > 100 µM | TGI [7]: > 100 µM | TGI [8]: > 100 µM | TGI [9]: > 100 µM | TGI [10]: > 100 µM | TGI [11]: > 100 µM | TGI [12]: > 100 µM | TGI [13]: > 100 µM | TGI [14]: > 100 µM | TGI [15]: > 100 µM | TGI [16]: > 100 µM | TGI [17]: > 100 µM | TGI [18]: > 100 µM | TGI [19]: > 100 µM | TGI [20]: > 100 µM | TGI [21]: > 100 µM | TGI [22]: > 100 µM | TGI [23]: > 100 µM | TGI [24]: > 100 µM | TGI [25]: > 100 µM | TGI [26]: > 100 µM | TGI [27]: > 100 µM | TGI [28]: > 100 µM | TGI [29]: > 100 µM | TGI [30]: > 100 µM | TGI [31]: > 100 µM | TGI [32]: > 100 µM | TGI [33]: > 100 µM | TGI [34]: > 100 µM | TGI [35]: > 100 µM | TGI [36]: > 100 µM | TGI [37]: > 100 µM | TGI [38]: > 100 µM | TGI [39]: > 100 µM | TGI [40]: > 100 µM | TGI [41]: > 100 µM | TGI [42]: > 100 µM | TGI [43]: > 100 µM | TGI [44]: > 100 µM | TGI [45]: > 100 µM | TGI [46]: > 100 µM | TGI [47]: > 100 µM | TGI [48]: > 100 µM | TGI [49]: > 100 µM | TGI [50]: > 100 µM | TGI [51]: > 100 µM | TGI [52]: > 100 µM | TGI [53]: > 100 µM | TGI [54]: > 100 µM | TGI [55]: > 100 µM | TGI [56]: > 100 µM | TGI [57]: > 100 µM | TGI [58]: > 100 µM

O=C(NCCOC(=O)OCCNC(=O)NC1CCCCC1)NC1CCCCC1
TGI [1]: > 100 µM | TGI [2]: > 100 µM | TGI [3]: > 100 µM | TGI [4]: > 100 µM | TGI [5]: > 100 µM | TGI [6]: > 100 µM | TGI [7]: > 100 µM | TGI [8]: > 100 µM | TGI [9]: > 100 µM | TGI [10]: > 100 µM | TGI [11]: > 100 µM | TGI [12]: > 100 µM | TGI [13]: > 100 µM | TGI [14]: > 100 µM | TGI [15]: 79 µM | TGI [16]: > 100 µM | TGI [17]: > 100 µM | TGI [18]: > 100 µM | TGI [19]: > 100 µM | TGI [20]: > 100 µM | TGI [21]: > 100 µM | TGI [22]: > 100 µM | TGI [23]: > 100 µM | TGI [24]: > 100 µM | TGI [25]: > 100 µM | TGI [26]: > 100 µM | TGI [27]: > 100 µM | TGI [28]: > 100 µM | TGI [29]: > 100 µM | TGI [30]: > 100 µM | TGI [31]: > 100 µM | TGI [32]: > 100 µM | TGI [33]: > 100 µM | TGI [34]: > 100 µM | TGI [35]: > 100 µM | TGI [36]: > 100 µM | TGI [37]: > 100 µM | TGI [38]: > 100 µM | TGI [39]: > 100 µM | TGI [40]: > 100 µM | TGI [41]: > 100 µM | TGI [42]: > 100 µM | TGI [43]: > 100 µM | TGI [44]: > 100 µM | TGI [45]: > 100 µM | TGI [46]: > 100 µM | TGI [47]: > 100 µM | TGI [48]: > 100 µM | TGI [49]: > 100 µM | TGI [50]: > 100 µM | TGI [51]: > 100 µM | TGI [52]: > 100 µM | TGI [53]: > 100 µM | TGI [54]: > 100 µM | TGI [55]: > 100 µM | TGI [56]: > 100 µM | TGI [57]: > 100 µM | TGI [58]: > 100 µM

O=C1c2ccccc2-c2nc(-c3ccncc3)cc3c2c1nc1ccccc13
TGI [1]: > 100 µM | TGI [3]: 40.2 µM | TGI [4]: > 100 µM | TGI [59]: > 100 µM | TGI [5]: > 100 µM | TGI [6]: > 100 µM | TGI [7]: 62.3 µM | TGI [8]: 32.3 µM | TGI [9]: > 100 µM | TGI [10]: 42.9 µM | TGI [11]: > 100 µM | TGI [12]: > 100 µM | TGI [13]: 34.5 µM | TGI [14]: 25.3 µM | TGI [15]: > 100 µM | TGI [17]: > 100 µM | TGI [18]: 52.8 µM | TGI [19]: > 100 µM | TGI [20]: 47.7 µM | TGI [21]: > 100 µM | TGI [22]: 17 µM | TGI [23]: 22.4 µM | TGI [24]: > 100 µM | TGI [25]: > 100 µM | TGI [26]: 29.5 µM | TGI [27]: 41.9 µM | TGI [28]: 44.4 µM | TGI [29]: > 100 µM | TGI [30]: 41.3 µM | TGI [31]: 90.9 µM | TGI [32]: 30.7 µM | TGI [33]: > 100 µM | TGI [34]: 12.8 µM | TGI [35]: > 100 µM | TGI [36]: > 100 µM | TGI [37]: > 100 µM | TGI [38]: > 100 µM | TGI [39]: > 100 µM | TGI [42]: 29.5 µM | TGI [43]: > 100 µM | TGI [44]: 26.3 µM | TGI [45]: > 100 µM | TGI [47]: > 100 µM | TGI [48]: > 100 µM | TGI [49]: > 100 µM | TGI [50]: > 100 µM | TGI [51]: 44.8 µM | TGI [52]: > 100 µM | TGI [54]: > 100 µM | TGI [55]: 33.2 µM | TGI [56]: 47.3 µM | TGI [57]: 26.2 µM | TGI [58]: > 100 µM
